Each structure is given as a SMILES string.

As usually defined, the EC50 is the concentration giving half of the maximal effect.

For data set [1], the system named is cowpox virus (Brighton). The data set is described as follows: organism not typed. The settings on record: HFF, read-out: EC50 in cells infected with cowpox or vaccinia virus. The class given is cell-based.
In data set [2] the test system is ECTV-Moscow strain. Put plainly: organism not typed. The format is cell-based, Ectromelia.
The test system of data set [3] is Vaccinia virus (Copenhagen). Put plainly: microbe, parasite or virus in culture. The class given is cell-based. The conditions noted are these: Orthopoxvirus vaccinia, HFF, read-out: Vaccinia EC50.

In the case of `CC(C)CCCCCCCCCCCOCCCOP(=O)(O)CO[C@H](CO)Cn1ccc(N)nc1=O` [Compound 12M-TRDP-CDV, 12-methyl-tridecyloxypropyl-cidofovir], the 50% effective concentration (EC50) in data set [1] is 800 to 1000 nM.
Turning to `C=CCCCCCCCCCCCCCCOCCOP(=O)(O)CO[C@H](CO)Cn1cnc2c(N)ncnc21` [HDNE-(S)-HPMPA, ω-hexadecenyloxyethyl-(S)-HPMPA], the “Ectromelia S.I. (selective index)” value in data set [2] is on record as 7. Moreover, the EC50 in data set [2] (BSC-1, read-out: antiviral activity (EC50), virus not specified) is 300 to 740 nM.
Turning to `CCCCCCCCCCCCCCCCOCCCOP(=O)(O)CO[C@H](CO)Cn1cnc2c(N)ncnc21` [HDP-(S)-HPMPA, hexadecyloxypropyl-(S)-HPMPA], the “% intact compound, human liver S9” value is recorded as 92-93%.
With `CCCCCCCCCCCCCCCCOCCCOP(=O)(O)CO[C@H](CO)Cn1ccc(N)nc1=O` [HDP-CDV, hexadecyloxypropyl-cidofovir], in data set [3], the EC50 came out at 80 ± 30 nM.
On to `CCCCCCCCCCCCCCCCCCOC[C@@H](COP(=O)(O)CO[C@H](CO)Cn1ccc(N)nc1=O)OCc1ccccc1` [ODBG-CDV, 1-O-octadecyl-2-O-benzyl-sn-glyceryl-3-cidofovir], for which the “% compound remaining, Human S9” value (s9, 1.5 h) was 91-92%.

The record behind these values is article PMC3104040 (Bioorganic & medicinal chemistry, 2011).
